Series [1] relates to non-small cell lung cancer. In words: Phase I study of ganetespib with cisplatin/pemetrexed, carboplatin/pemetrexed or carboplatin/paclitaxel. The format is in vivo, patients. The following applies: combination with cisplatin/pemetrexed. The text has this: This is a Phase 1, open-label, dose-escalation study in patients with advanced NSCLC with adenocarcinoma histology.
Cohort 1: patients treated with ganetespib, cisplatin and pemetrexed
Cohort 2: patients treated with ganetespib, carboplatin and pemetrexed
Cohort 3: patients treated with ganetespib, carboplatin and paclitaxel
In Cohort 1, one treatment cycle consists of treatment with ganetespib, cisplatin and pemetrexed on Day 1, and ganetespib on Day 15
In Cohort 2, one treatment cycle consists of treatment with ganetespib, carboplatin and pemetrexed on Day 1, and ganetespib on Day 15
In Cohort 3, one treatment cycle consists of treatment with ganetespib, carboplatin and paclitaxel on Day 1, and ganetespib on Day 15
Treatment cycles are repeated every 3 weeks. The total planned number of combination cycles is 4. Ganetespib is administered on Days 1 and 15 of each cycle; cisplatin and pemetrexed, carboplatin and pemetrexed, or carboplatin and paclitaxel are administered on Day 1 of each cycle. Each agent is administered as a separate infusion (see Dose-Escalation Table below). […]
Duration of treatment: the duration of the combination treatment for each regimen is 4 treatment cycles, if tolerated. Patients who complete 4 combination-treatment cycles are evaluated for tumor disease response, general performance status and toxicities. […]

The test system of series [2] is ovarian, fallopian tube or peritoneal cancer. The series can be described thus: Phase I/II study of ganetespib in combination with paclitaxel. The following applies: combination with weekly paclitaxel 80 mg/m^2. The format is in vivo. How it is done: A Phase I/II trial of weekly paclitaxel in combination with ganetespib in patients with recurrent, platinum-resistant ovarian, fallopian tube or primary peritoneal cancer is performed. A total of up to 74 patients (up to 18 Phase I patients and up to 56 Phase II patients) with recurrent, platinum-resistant epithelial ovarian, primary peritoneal and fallopian tube carcinoma is enrolled.
Phase I Treatment: Paclitaxel IV given over 1 hour at 80 mg/m^2 days 1, 8 and 15 of a 28-day cycle. Ganetespib IV at a starting dose of 100 mg/m^2 on days 1, 8 and 15 of a 28-day cycle. Ganetespib escalation will follow a modified 3+3 design and escalate from 100 mg/m^2 to 125 mg/m^2 to 150 mg/m^2.
Phase II treatment (after MTD): Phase II TPaclitaxel IV given over 1 hour at 80 mg/m^2 days 1, 8 and 15 of a 28-day cycle. PLUS ganetespib IV at MTD/MED from Phase I on days 1, 8 and 15 of a 28-day cycle.

The test system of series [3] is cancers with genetic profiles driven by strong Hsp90 clients. In words: Earlier clinical results for ganetespib, monotherapy and with taxanes. It is filed as in vivo. The text has this: The clinical study aims to achieve this goal by using ganetespib to target what may be a central driver of ovarian cancer aggressiveness and metastatic ability, namely mutant p53.

Series [4] has as its system complex between Hsp90 and mutant p53. In words: Preclinical study of Hsp90 inhibition by ganetespib in mutant p53 cells. The format is cell-based.
Where [5] appears, read: combination of ganetespib and taxanes.

With `CC(C)c1cc(-c2n[nH]c(=O)n2-c2ccc3c(ccn3C)c2)c(O)cc1O` [ganetespib], in series [1], the efficacy entry is reported as “efficacious” and the safety profile entry is “good safety profile”. In addition, in series [2], the efficacy result was “efficacious” and the safety profile result was “good safety profile”. Further, in series [3] (setting [5]), the activity entry is listed as “favorable” and the safety profile entry is recorded as “favorable”. The tumor responses entry in series [3] (ganetespib monotherapy, cancers with genetic profiles driven by strong Hsp90 clients) is on record as “durable objective tumor responses”. Further, in series [4], the anti-cancer activity entry was “potent anti-cancer activity”; the “anti-cancer activity in cells with mutant p53 compared with other cells” value is “substantially stronger in cells with mutant p53”; the “effect on complex between Hsp90 and mutant p53” value is “destroyed the complex between Hsp90 and mutant p53”; the “effect on mutant p53 protein” value is “inducing the degradation of mutant p53”. The “sensitization of mutant p53 cancer cells to treatment with chemotherapies” value in series [4] (inhibition of Hsp90) is given as “strongly sensitize”.

For the origin of these results see US20160120848A1, “SPECIFIC CANCER TREATMENT REGIMES WITH GANETESPIB” (SYNTA PHARMACEUTICALS CORP., priority 2013, published 2016).
